Test results taken from patent US20260199281A1, “NEW USE OF SIVELESTAT” (SHANGHAI HUILUN PHARMACEUTICAL CO., LTD., priority 2022, published 2026).

Columns and labels:
Type in all cases: in vivo, SD male rats
Conditions in all cases: single dose, mean ± SD
[1] = test system: carrageenan-induced pain models; test: Determination of paw swelling volumes, carrageenan-induced pain models
Procedure: The experimental results were expressed as “mean±standard deviation”. The data of each group were statistically analyzed using the SPSS16.0 software package to compare whether there were statistical differences among the groups. P<0.05 indicated a statistical difference. A total of 72 SD male rats aged 6 to 8 weeks, with body weights of 188-208 g, were divided into 9 groups, with 8 rats in each group. […] Then 20 mL of normal saline was added to the glass bottle. The glass bottle was placed on a magnetic stirrer, and magnetic stirring was performed for 6 hours to obtain a 3% carrageenan solution. The carrageenan solution was stored at 4° C. • 1 Fasting: no • 2 Administration route: IP (intraperitoneal injection) • 3 Administration volume: 5 mL/kg • 4 Administration frequency: single-dose administration • 5 Time of administration: administered immediately after induction Sivelestat sodium: 26 mg of sivelestat sodium (corresponding to a dosage of 10 mg/kg) was weighed. Part of normal saline was added, and sonication and vortexing were performed. The pH was adjusted with […] until a homogeneous solution was obtained, and finally, the volume was made up to 13.0 mL. Experimental samples with other dosages (30 mg/kg, 100 mg/kg) could be prepared according to the specific dosages with reference to a similar method. Parecoxib: 24 mg of parecoxib (corresponding to a dosage of 10 mg/kg) was weighed. Part of normal saline was added, and sonication and vortexing were performed. The pH was adjusted with 10 mol NaOH until a homogeneous solution was obtained, and finally, the volume was made up to 12.0 mL. Experimental samples with other dosages (20 mg/kg) could be prepared according to the specific dosages with reference to a similar method. Samples of other COX-2 inhibitors were prepared with reference to the similar method described above. [table] To measure the paw swelling volumes (paw volumes) of experimental rats, the animals were gently held with one hand, and their hind paws were placed into the instrument used to measure the paw volumes with the other hand. The size of the paw volume was recorded. The measurement was repeated twice, and the mean value was taken as the paw volume of the animals.

[2] = test system: carrageenan-induced pain models; test: Determination of mechanical pain thresholds (electronic Von Frey Hairs), carrageenan-induced pain models
Procedure: The experimental results were expressed as “mean±standard deviation”. The data of each group were statistically analyzed using the SPSS16.0 software package to compare whether there were statistical differences among the groups. P<0.05 indicated a statistical difference. A total of 72 SD male rats aged 6 to 8 weeks, with body weights of 188-208 g, were divided into 9 groups, with 8 rats in each group. […] Then 20 mL of normal saline was added to the glass bottle. The glass bottle was placed on a magnetic stirrer, and magnetic stirring was performed for 6 hours to obtain a 3% carrageenan solution. The carrageenan solution was stored at 4° C. • 1 Fasting: no • 2 Administration route: IP (intraperitoneal injection) • 3 Administration volume: 5 mL/kg • 4 Administration frequency: single-dose administration • 5 Time of administration: administered immediately after induction Sivelestat sodium: 26 mg of sivelestat sodium (corresponding to a dosage of 10 mg/kg) was weighed. Part of normal saline was added, and sonication and vortexing were performed. The pH was adjusted with […] until a homogeneous solution was obtained, and finally, the volume was made up to 13.0 mL. Experimental samples with other dosages (30 mg/kg, 100 mg/kg) could be prepared according to the specific dosages with reference to a similar method. Parecoxib: 24 mg of parecoxib (corresponding to a dosage of 10 mg/kg) was weighed. Part of normal saline was added, and sonication and vortexing were performed. The pH was adjusted with 10 mol NaOH until a homogeneous solution was obtained, and finally, the volume was made up to 12.0 mL. Experimental samples with other dosages (20 mg/kg) could be prepared according to the specific dosages with reference to a similar method. Samples of other COX-2 inhibitors were prepared with reference to the similar method described above. [table] The animals were placed in a specially designed multi-unit metal mesh cage for pain detection, and allowed to acclimate to the environment for 10 minutes. After the grooming and exploratory activities of the animals ceased and the animals adapted to the detection environment, the sole of the hind limb on the side where carrageenan was injected in the rats was stimulated with electronic Von Frey Hairs. […] The value of the Von Frey Hairs at this time, which was the threshold of the mechanical pain response, was recorded with “gram” as the unit of detection. The detection was repeated twice. Then the mean value was taken as the final detection index. The determination of mechanical pain thresholds was performed at a total of 5 time points, including before administration and 1 h, 3 h, 4 h and 6 h after administration.

[3] = test system: carrageenan-induced pain models; test: Determination of thermal radiation (thermal pain threshold), carrageenan-induced pain models
Procedure: The experimental results were expressed as “mean±standard deviation”. The data of each group were statistically analyzed using the SPSS16.0 software package to compare whether there were statistical differences among the groups. P<0.05 indicated a statistical difference. A total of 72 SD male rats aged 6 to 8 weeks, with body weights of 188-208 g, were divided into 9 groups, with 8 rats in each group. […] Then 20 mL of normal saline was added to the glass bottle. The glass bottle was placed on a magnetic stirrer, and magnetic stirring was performed for 6 hours to obtain a 3% carrageenan solution. The carrageenan solution was stored at 4° C. • 1 Fasting: no • 2 Administration route: IP (intraperitoneal injection) • 3 Administration volume: 5 mL/kg • 4 Administration frequency: single-dose administration • 5 Time of administration: administered immediately after induction Sivelestat sodium: 26 mg of sivelestat sodium (corresponding to a dosage of 10 mg/kg) was weighed. Part of normal saline was added, and sonication and vortexing were performed. The pH was adjusted with […] until a homogeneous solution was obtained, and finally, the volume was made up to 13.0 mL. Experimental samples with other dosages (30 mg/kg, 100 mg/kg) could be prepared according to the specific dosages with reference to a similar method. Parecoxib: 24 mg of parecoxib (corresponding to a dosage of 10 mg/kg) was weighed. Part of normal saline was added, and sonication and vortexing were performed. The pH was adjusted with 10 mol NaOH until a homogeneous solution was obtained, and finally, the volume was made up to 12.0 mL. Experimental samples with other dosages (20 mg/kg) could be prepared according to the specific dosages with reference to a similar method. Samples of other COX-2 inhibitors were prepared with reference to the similar method described above. [table] The animals were placed in a transparent plastic box, and could be allowed to acclimatize for 10 minutes before the test. The middle of the plantar surface of the hind limb on the side where carrageenan was injected in the rats was irradiated with a radiant heat light source to determine their thermal pain threshold. The detection was repeated twice. Then the mean value was taken as the final detection index.

[4] = 10 mg/kg intraperitoneal, 1 hour after administration
[5] = 10 mg/kg intraperitoneal, 3 hours after administration
[6] = 10 mg/kg intraperitoneal, 4 hours after administration
[7] = 10 mg/kg intraperitoneal, 6 hours after administration
[8] = 20 mg/kg intraperitoneal, 1 hour after administration
[9] = 20 mg/kg intraperitoneal, 3 hours after administration
[10] = 20 mg/kg intraperitoneal, 4 hours after administration
[11] = 20 mg/kg intraperitoneal, 6 hours after administration

Question: For `CCC(=O)NS(=O)(=O)c1ccc(-c2c(-c3ccccc3)noc2C)cc1` [parecoxib], which “Relative value of paw volumes” value [1, 4] is on record?
Answer: 4.34 ± 25.02%

Question: And the “Relative value of paw volumes” value [1, 5]?
Answer: 24.76 ± 11.32 %

Question: What about the “Relative value of paw volumes” value [1, 6] of the same compound?
Answer: 22.58 ± 18.82 %

Question: What about the “Relative value of paw volumes” value [1, 7] of the same compound?
Answer: 20.81 ± 12.66 %

Question: What about the “Relative value of paw volumes” value [1, 8] of the same compound?
Answer: 18.58 ± 45.76%

Question: What about the “Relative value of paw volumes” value [1, 9] of the same compound?
Answer: 31.45 ± 25.56 %

Question: What about the “Relative value of paw volumes” value [1, 10] of the same compound?
Answer: 19.47 ± 23.41%

Question: And the “Relative value of paw volumes” value [1, 11]?
Answer: 23.95 ± 15.74 %

Question: And the “Relative value of Von Frey Hairs” value [2, 4]?
Answer: 13.6 ± 5.9 %

Question: What about the “Relative value of Von Frey Hairs” value [2, 5] of the same compound?
Answer: 16.4 ± 4.2 %

Question: What about the “Relative value of Von Frey Hairs” value [2, 6] of the same compound?
Answer: 15.1 ± 4.5 %

Question: And the “Relative value of Von Frey Hairs” value [2, 7]?
Answer: 11.9 ± 5.8 %

Question: What about the “Relative value of Von Frey Hairs” value [2, 8] of the same compound?
Answer: 13.7 ± 7.5 %

Question: What about the “Relative value of Von Frey Hairs” value [2, 9] of the same compound?
Answer: 17.3 ± 7.9 %

Question: What about the “Relative value of Von Frey Hairs” value [2, 10] of the same compound?
Answer: 16.2 ± 4.2 %

Question: What about the “Relative value of Von Frey Hairs” value [2, 11] of the same compound?
Answer: 12.4 ± 3.9 %

Question: What about the “Relative value of thermal radiation” value [3, 4] of the same compound?
Answer: 34.6 ± 18.9 %

Question: What about the “Relative value of thermal radiation” value [3, 5] of the same compound?
Answer: 16.6 ± 16.7%

Question: What about the “Relative value of thermal radiation” value [3, 6] of the same compound?
Answer: 22.7 ± 13.8 %

Question: And the “Relative value of thermal radiation” value [3, 7]?
Answer: 14.6 ± 11.0 %

Question: What about the “Relative value of thermal radiation” value [3, 8] of the same compound?
Answer: 45.8 ± 25.1 %

Question: What about the “Relative value of thermal radiation” value [3, 9] of the same compound?
Answer: 58.5 ± 22.3 %

Question: And the “Relative value of thermal radiation” value [3, 10]?
Answer: 37.4 ± 26.7%

Question: What about the “Relative value of thermal radiation” value [3, 11] of the same compound?
Answer: 38.0 ± 11.0 %
